# Experimental data: PMC3402509 (Investigational New Drugs, 2011)
# Read-outs that look alike come from different tables or passages of the source.
# Columns and labels:
# [1] = Dasatinib pharmacokinetic studies in plasma; assay type: in vivo, patients; settings: for Cmax: Cmax Geomean (%CV)
# SFK PY-416 (P-SFK) = test: P-SFK peripheral blood mononuclear cell; assay type: in vivo, patients; settings: for P-SFK levels in PBMCs compared to same day pre-dasatinib dosing levels: day 15 (with cetuximab)
# NSCLC = settings: dasatinib monotherapy, phase II; cited from earlier work
structure (smiles),measurement,setting,value
"Cc1nc(Nc2ncc(C(=O)Nc3c(C)cccc3Cl)s2)cc(N2CCN(CCO)CC2)n1 [dasatinib, N-(2-chloro-6-methyl-phenyl)-2-(6-(4-(2-hydroxyethyl)-piperazin-1-yl)-2-methylpyrimidin-4-ylamino)thiazole-5-carboxamide]",T-HALF Mean (SD),"[1]; 100 mg oral, Day 0 (alone), N=3",6.8 (0.1) h
same,T-HALF Mean (SD),"[1]; 100 mg oral, Day 15 (with cetuximab), N=3",6.4 (0.1) h
same,T-HALF Mean (SD),"[1]; 150 mg oral, Day 0 (alone), N=18",5.2 (1.0) h
same,T-HALF Mean (SD),"[1]; 200 mg oral, Day 0 (alone), N=3",5.1 (0.6) h
same,half-life,"[1]; human, plasma, po",300 to 360 min
same,Cmax,"[1]; human, plasma, po, 100 mg, 100 mg oral, Day 0 (alone), N=3",101 ng/mL
same,Tmax,"[1]; human, plasma, po, 100 mg, Tmax Med (Min, Max), 100 mg oral, Day 0 (alone), N=3",1 h
same,Cmax,"[1]; human, plasma, po, 150 mg, 150 mg oral, Day 0 (alone), N=18",144 ng/mL
same,Tmax,"[1]; human, plasma, po, 150 mg, Tmax Med (Min, Max), 150 mg oral, Day 0 (alone), N=18",1.5 h
same,Cmax,"[1]; human, plasma, po, 200 mg, 200 mg oral, Day 0 (alone), N=3",415 ng/mL
same,Tmax,"[1]; human, plasma, po, 200 mg, Tmax Med (Min, Max), 200 mg oral, Day 0 (alone), N=3",1 h
same,Tmax,"[1]; human, plasma, po, Tmax, text summary over dose levels",1 to 2 h
same,PK parameters (AUC and T-HALF) given alone (day 0) versus in combination with cetuximab (day 15),[1]; in vivo,comparable
same,P-SFK levels in PBMCs compared to baseline,"SFK PY-416 (P-SFK); day 0, 4 hours following dasatinib dosing",tended to be reduced
same,P-SFK levels in PBMCs compared to baseline,"SFK PY-416 (P-SFK); day 0, 8 hours following dasatinib dosing",significantly reduced
same,P-SFK levels in PBMCs compared to baseline,"SFK PY-416 (P-SFK); day 0, 24 hours following dasatinib dosing",did not differ from baseline levels
same,P-SFK levels in PBMCs compared to same day pre-dasatinib dosing levels,"SFK PY-416 (P-SFK); 8 hours, P=0.03",significantly decreased
same,P-SFK levels in PBMCs compared to same day pre-dasatinib dosing levels,"SFK PY-416 (P-SFK); 24 hours, P=0.18",did not differ from pre-dasatinib dosing levels
same,patients with either a partial response or SD,NSCLC,43%
same,DLT (patients),"dose level 1, dasatinib 100 mg once daily plus weekly cetuximab, 3 (3) patients (evaluable)",None
same,DLT (patients),"dose level 2, dasatinib 150 mg once daily plus weekly cetuximab, 19 (14) patients (evaluable)",1
same,DLT (patients),"dose level 2, dasatinib 150 mg once daily plus weekly cetuximab, 19 (14) patients (evaluable), listed as Dasatinib",1 (Headache)
same,DLT (patients),"dose level 3, dasatinib 200 mg once daily plus weekly cetuximab, 3 (2) patients (evaluable)",2
